According to patent publication US20070066606A1, “Benzylbenzimidazolyl derivatives” (priority 2003, published 2007):

Biological target: TIE-2 (Homo sapiens, UniProt Q02763)
Assay: TIE-2 kinase flashplate assay (phosphorylation of poly(Glu, Tyr) with 33P-ATP)
Format: biochemical
Conditions: read-out: Inhibition of TIE-2 IC50
Protocol: The TIE-2 tests can be carried out, for example, analogously to the methods indicated in WO 02/44156.
The assay determines the inhibiting activity of the substances to be tested in the phosphorylation of the substrate poly(Glu, Tyr) by Tie-2 kinase in the presence of radioactive ^33P-ATP. The phosphorylated substrate binds to the surface of a “flashplate” microtitre plate during the incubation time. After removal of the reaction mixture, the microtitre plate is washed a number of times and the radioactivity on its surface is subsequently measured. An inhibiting effect of the substances to be measured results in lower radioactivity compared with an undisturbed enzymatic reaction.

TIE-2, sequence (Q02763 23-1124, species assumed): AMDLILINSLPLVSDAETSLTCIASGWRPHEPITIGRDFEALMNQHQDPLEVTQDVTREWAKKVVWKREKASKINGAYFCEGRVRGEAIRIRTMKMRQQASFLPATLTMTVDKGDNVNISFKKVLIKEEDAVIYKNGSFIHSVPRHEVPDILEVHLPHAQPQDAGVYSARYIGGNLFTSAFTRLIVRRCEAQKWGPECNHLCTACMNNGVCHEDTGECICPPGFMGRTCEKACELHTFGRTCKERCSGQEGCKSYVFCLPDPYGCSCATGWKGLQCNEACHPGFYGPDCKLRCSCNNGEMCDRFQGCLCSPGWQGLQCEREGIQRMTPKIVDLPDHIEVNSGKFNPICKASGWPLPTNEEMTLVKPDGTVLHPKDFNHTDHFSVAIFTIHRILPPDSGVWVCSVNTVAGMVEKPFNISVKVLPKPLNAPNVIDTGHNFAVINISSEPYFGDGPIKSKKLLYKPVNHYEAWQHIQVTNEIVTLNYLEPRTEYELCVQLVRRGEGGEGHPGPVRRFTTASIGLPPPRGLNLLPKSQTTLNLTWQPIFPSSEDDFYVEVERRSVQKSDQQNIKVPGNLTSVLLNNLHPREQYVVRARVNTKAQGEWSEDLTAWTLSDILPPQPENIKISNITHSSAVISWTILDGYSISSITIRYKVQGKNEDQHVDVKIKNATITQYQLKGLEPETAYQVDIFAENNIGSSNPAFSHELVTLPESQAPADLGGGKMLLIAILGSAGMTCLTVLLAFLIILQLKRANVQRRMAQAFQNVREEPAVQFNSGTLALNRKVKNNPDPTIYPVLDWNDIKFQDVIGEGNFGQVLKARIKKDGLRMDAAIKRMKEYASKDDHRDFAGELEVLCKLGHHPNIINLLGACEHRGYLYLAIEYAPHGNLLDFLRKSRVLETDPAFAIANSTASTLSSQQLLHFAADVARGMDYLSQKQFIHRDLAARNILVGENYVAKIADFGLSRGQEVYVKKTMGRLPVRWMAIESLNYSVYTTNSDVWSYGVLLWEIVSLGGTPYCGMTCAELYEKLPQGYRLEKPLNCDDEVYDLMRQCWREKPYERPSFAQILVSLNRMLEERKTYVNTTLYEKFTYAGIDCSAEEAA

IC50 [µM] | SMILES
2.78 | Nc1nc2cc(Br)ccc2n1Cc1ccc(NS(=O)(=O)c2cccc(Cl)c2Cl)cc1 [N-[4-(2-amino-5-bromo-benzimidazol-1-ylmethyl)-phenyl]-2,3-dichloro-benzenesulfonamide]
0.32 | Nc1nc2cc(CCCO)ccc2n1Cc1ccc(NS(=O)(=O)c2cccc(Cl)c2Cl)cc1 [N-{4-[2-amino-5-(3-hydroxy-propyl)benzimidazol-1-yl-methyl]phenyl}-2,3-dichloro-benzenesulfonamide]
